Assay [1] concerns A549 lung cancer cell line. The assay is described as follows: Antiproliferative activity, A549. In kind it is cell-based, human. As for the experimental part: (§1) A study was conducted to evaluate the inhibitory activity of compounds of Formula (I) in inhibiting HDAC6, antiproliferative activity of test compounds in suppressing cancer cell growth, and selectivity of inhibiting HDAC6 over other HDAC isoforms.
(§2) The study was performed according to the protocol reported in Hsieh et al., Cell Death and Disease, 2014, April; 5:e1166.
(§3) Shown in Table 2 below are antiproliferative activities (measured by their half maximal concentration for inhibiting cell growth, i.e., GI50) of the test compounds against various cancer cell lines.

In assay [2] the test system is PC-3 prostate cancer cell line. The assay is described as follows: Antiproliferative activity, PC-3. It is filed as cell-based, human. The protocol: as §1, §2, §3
The target in another assay is T1, HDAC6 (Homo sapiens, UniProt Q9UBN7).
T1 construct: purchased BPS Bioscience Corp
T1 sequence (Q9UBN7 1-1215): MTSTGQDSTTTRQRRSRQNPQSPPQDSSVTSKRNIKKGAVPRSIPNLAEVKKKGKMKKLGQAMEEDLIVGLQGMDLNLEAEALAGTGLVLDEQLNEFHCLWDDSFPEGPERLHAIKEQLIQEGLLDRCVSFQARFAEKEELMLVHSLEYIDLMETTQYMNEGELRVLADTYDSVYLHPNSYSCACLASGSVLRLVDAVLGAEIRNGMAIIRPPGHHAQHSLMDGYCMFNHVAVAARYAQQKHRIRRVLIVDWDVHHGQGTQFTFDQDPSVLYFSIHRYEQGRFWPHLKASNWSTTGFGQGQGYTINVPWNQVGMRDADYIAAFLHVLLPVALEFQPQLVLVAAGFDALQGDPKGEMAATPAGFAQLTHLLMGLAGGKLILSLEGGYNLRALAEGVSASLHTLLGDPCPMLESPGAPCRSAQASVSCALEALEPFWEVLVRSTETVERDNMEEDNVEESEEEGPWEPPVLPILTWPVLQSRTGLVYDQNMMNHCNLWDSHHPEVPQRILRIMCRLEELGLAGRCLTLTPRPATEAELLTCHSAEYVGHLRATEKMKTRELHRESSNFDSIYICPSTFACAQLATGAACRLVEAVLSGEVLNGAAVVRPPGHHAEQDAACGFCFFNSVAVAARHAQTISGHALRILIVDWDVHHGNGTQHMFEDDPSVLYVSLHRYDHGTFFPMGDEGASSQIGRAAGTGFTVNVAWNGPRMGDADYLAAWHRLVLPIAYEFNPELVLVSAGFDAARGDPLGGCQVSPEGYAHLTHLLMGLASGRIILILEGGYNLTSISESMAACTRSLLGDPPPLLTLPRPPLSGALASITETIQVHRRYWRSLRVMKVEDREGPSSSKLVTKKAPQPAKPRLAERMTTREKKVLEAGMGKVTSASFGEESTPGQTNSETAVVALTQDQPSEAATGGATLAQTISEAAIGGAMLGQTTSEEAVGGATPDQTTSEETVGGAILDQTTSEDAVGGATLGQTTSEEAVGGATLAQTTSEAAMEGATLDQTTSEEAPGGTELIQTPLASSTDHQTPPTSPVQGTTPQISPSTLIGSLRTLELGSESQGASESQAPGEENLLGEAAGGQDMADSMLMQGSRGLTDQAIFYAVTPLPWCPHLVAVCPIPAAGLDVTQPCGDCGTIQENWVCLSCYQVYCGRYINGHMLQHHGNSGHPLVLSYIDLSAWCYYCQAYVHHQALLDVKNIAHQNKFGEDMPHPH
The assay is described as follows: Fluorogenic HDAC assay, HDAC6. In kind it is biochemical. The conditions noted are these: recombinant HDAC6; read-out: Enzyme IC50 HDAC6. The text has this:
(§4) Of note, there are eighteen human HDACs. Eleven of them, designated as HDAC1-11, are zinc-dependent. Seven of them, designated as Sirt1-7, are NAD+-dependent.
(§5) Fluorogenic HDAC assay kits were used to assess the ability of HDAC inhibitors to inhibit deacetylation of lysine residues on a substrate by recombinant proteins HDAC1, 3, 4, 5, 6, 7, 8, 9 and Sirt1 according to the manufacturer's instructions (BPS Bioscience Corp., San Diego, Calif., USA).

The next assay concerns the target T2, HDAC1 (Homo sapiens, UniProt Q13547).
T2 construct: purchased BPS Bioscience Corp
The assay is described as follows: Fluorogenic HDAC assay, HDAC1. It is filed as biochemical. Conditions: recombinant HDAC1; read-out: Enzyme IC50 HDAC1.
From the text: as §4, §5

In assay [3] the test system is HCT116 colorectal cancer cell line. The assay is described as follows: Antiproliferative activity, HCT116. It is filed as cell-based. The conditions noted are these: Homo sapiens, HCT-116. The protocol:
as §1, §2, §3

Structures are written as SMILES. Like-named read-outs stand apart in the source and are kept apart here. A value given as a limit tells only on which side of the number the result lay.

T2 sequence (Q13547 whole entry): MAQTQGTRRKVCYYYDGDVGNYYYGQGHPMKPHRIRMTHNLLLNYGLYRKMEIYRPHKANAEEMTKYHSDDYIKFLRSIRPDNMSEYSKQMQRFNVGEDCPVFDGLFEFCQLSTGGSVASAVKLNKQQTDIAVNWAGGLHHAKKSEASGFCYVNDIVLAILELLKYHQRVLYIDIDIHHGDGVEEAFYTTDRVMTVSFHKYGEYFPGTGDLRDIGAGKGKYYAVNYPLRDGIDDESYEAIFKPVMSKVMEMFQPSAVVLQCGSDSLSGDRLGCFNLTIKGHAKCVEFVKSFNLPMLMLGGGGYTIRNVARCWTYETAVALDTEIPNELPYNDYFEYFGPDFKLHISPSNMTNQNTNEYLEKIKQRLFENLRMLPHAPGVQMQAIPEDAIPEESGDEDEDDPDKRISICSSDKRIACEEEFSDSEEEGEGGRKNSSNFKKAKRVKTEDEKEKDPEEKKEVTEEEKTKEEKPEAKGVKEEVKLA

For orientation: GI50 means the concentration that inhibits growth by half. Low values mean more potent growth inhibition, high ones less potent growth inhibition. For the molecule `CN1CCc2c(c3ccccc3n2Cc2ccc(C(=O)NO)cc2)C1` [Tubastatin A, reference compound], the values for the GI50 in assay [1] and in assay [2] were 52.2 ± 1.28 µM and 48.19 ± 0.43 µM, respectively.

With `O=C(/C=C/c1ccc(C(=O)Nc2cccc3ncccc23)cc1)NO` [Compound 18, (E)-4-(3-(hydroxyamino)-3-oxoprop-1-enyl)-N-(quinolin-5-yl)benzamide], the GI50 in assay [1] (Homo sapiens) and in assay [2] (Homo sapiens) was over 10 µM each time.

Turning to `O=C(NO)c1ccc(C(=O)Nc2cccc3cccnc23)cc1` [Compound 32, N^1-hydroxy-N^4-(quinolin-8-yl)terephthalamide], the GI50 in assay [1] (Homo sapiens) and in assay [2] (Homo sapiens) was over 10 µM throughout.

One may read the IC50 as the midpoint of a concentration-inhibition curve. Regarding `O=C(NO)c1ccc(CSc2cccc3cccnc23)cc1` [Compound 73, N-hydroxy-4-((quinolin-8-ylthio)methyl)benzamide], the GI50 in assay [1] (Homo sapiens) stood at 6.11 ± 0.69 µM; in assay [2] (Homo sapiens), 4.29 ± 0.7 µM. Moreover, the IC50 was 0.0234 µM at HDAC6 and 2.2 µM at HDAC1.

With `O=C(NO)c1cccc(CNc2cccc3cccnc23)c1` [Compound 36, N-hydroxy-3-((quinolin-8-ylamino)methyl)benzamide], the GI50 in assay [2] (Homo sapiens) and in assay [3] was over 10 µM in each case.

`O=C(/C=C/c1ccc(C(=O)Nc2cnc3ccccc3c2)cc1)NO` [Compound 10, (E)-4-(3-(hydroxyamino)-3-oxoprop-1-enyl)-N-(quinolin-3-yl)benzamide]: the 50% growth inhibitory concentration (GI50) in assay [1] (Homo sapiens) and in assay [2] (Homo sapiens) was over 10 µM throughout.

Take `O=C(NO)c1ccc(C(=O)Nc2cnc3ccccc3c2)cc1` [Compound 8, N^1-hydroxy-N^4-(quinolin-3-yl)terephthalamide]: the GI50 in assay [1] (Homo sapiens) and in assay [2] (Homo sapiens) was over 10 µM each time.

For `O=C(NO)c1ccc(C(=O)NCc2cccc3cccnc23)cc1` [Compound 47, N^1-hydroxy-N^4-(quinolin-8-ylmethyl)terephthalamide], the GI50 stood at 7.77 ± 0.03 µM in assay [1] (Homo sapiens) and 2.08 ± 0.1 µM in assay [2] (Homo sapiens).

With `O=C(/C=C/c1ccc(CNc2cccc3cccnc23)cc1)NO` [Compound 30, (E)-N-hydroxy-3-(4-((quinolin-8-ylamino)methyl)phenyl)acrylamide], the GI50 amounted to 1.11 ± 0.05 µM in assay [1] (Homo sapiens) and 1.25 ± 0.02 µM in assay [2] (Homo sapiens).

`O=C(NO)c1ccc(CNc2ccnc3ccccc23)cc1` [Compound 44, N-hydroxy-4-((quinolin-4-ylamino)methyl)benzamide] gave a 50% growth inhibitory concentration (GI50) in assay [3] of 3.28 ± 0.48 µM.

Take `O=C(NO)c1ccc(C(=O)Nc2cccc3ncccc23)cc1` [Compound 16, N1-hydroxy-N4-(quinolin-5-yl)terephthalamide]: the GI50 in assay [1] (Homo sapiens) and in assay [2] (Homo sapiens) was over 10 µM throughout.

For `O=C(NO)c1ccc(NCc2cccc3cccnc23)cc1` [Compound 75, N-hydroxy-4-(quinolin-8-ylmethylamino)benzamide], the figures for the GI50 in assay [1] (Homo sapiens) and in assay [2] (Homo sapiens) were 6.32 ± 0.92 µM and over 10 µM, respectively. Moreover, the results for the IC50 on HDAC6 and at HDAC1 were 0.011 µM and 2.04 µM, respectively.

Consider `O=C(/C=C/c1ccc(C(=O)Nc2cccc3cccnc23)cc1)NO` [Compound 34, (E)-4-(3-(hydroxyamino)-3-oxoprop-1-enyl)-N-(quinolin-8-yl)benzamide], for which the GI50 was 4.26 ± 0.07 µM in assay [1] (Homo sapiens) and 3.51 ± 0.18 µM in assay [2] (Homo sapiens).

With `O=C(NO)c1ccc(C(=O)Nc2ccc3ncccc3c2)cc1` [Compound 24, N^1-hydroxy-N^4-(quinolin-6-yl)terephthalamide], the GI50 in assay [1] (Homo sapiens) and in assay [2] (Homo sapiens) was over 10 µM each time.

Take `O=C(/C=C/c1ccc(C(=O)Nc2ccc3ncccc3c2)cc1)NO` [Compound 26, (E)-4-(3-(hydroxyamino)-3-oxoprop-1-enyl)-N-(quinolin-6-yl)benzamide]: the GI50 in assay [1] (Homo sapiens) and in assay [2] (Homo sapiens) was over 10 µM each time.

Consider `O=C(/C=C/c1ccc(CNc2cnc3ccccc3c2)cc1)NO` [Compound 6, (E)-N-hydroxy-3-(4-((quinolin-3-ylamino)methyl)phenyl)acrylamide], for which the results for the GI50 in assay [1] (Homo sapiens) and in assay [2] (Homo sapiens) were 0.71 ± 0.01 µM and 0.38 ± 0.03 µM, respectively.

As for `O=C(NO)c1ccc(CNc2ccc3ccccc3n2)cc1` [Compound 40, N-hydroxy-4-((quinolin-2-ylamino)methyl)benzamide], the concentration for 50% growth inhibition (GI50) in assay [2] (Homo sapiens) came out at 0.85 ± 0.09 µM; in assay [3] it was 0.29 ± 0.02 µM.

As to `O=C(NO)c1ccc(CCc2cccc3cccnc23)cc1` [Compound 52, N-hydroxy-4-(2-(quinolin-8-yl)ethyl)benzamide], the concentration for 50% growth inhibition (GI50) in assay [2] (Homo sapiens) came to 9.66 ± 0.07 µM; in assay [3], 3.05 ± 0.09 µM.

Turning to `O=C(NO)c1ccc(CNc2cccc3ccncc23)cc1` [Compound 56, N-hydroxy-4-((isoquinolin-8-ylamino)methyl)benzamide], the figures for the GI50 in assay [1] (Homo sapiens) and in assay [2] (Homo sapiens) were 1.76 ± 0.21 µM and 4.91 ± 0.24 µM, respectively.

Consider `O=C(Cc1ccc(C(=O)Nc2cccc3cccnc23)cc1)NO` [Compound 50, 4-(2-(hydroxyamino)-2-oxoethyl)-N-(quinolin-8-yl)benzamide], for which the 50% growth inhibitory concentration (GI50) in assay [1] (Homo sapiens) and in assay [2] (Homo sapiens) was over 10 µM each time.

As to `O=C(/C=C/c1ccc(CNc2ccc3ncccc3c2)cc1)NO` [Compound 22, (E)-N-hydroxy-3-(4-((quinolin-6-ylamino)methyl)phenyl)acrylamide], the GI50 in assay [1] (Homo sapiens) and in assay [2] (Homo sapiens) was over 10 µM throughout.

`O=C(NO)c1ccc(CNc2cnc3ccccc3c2)cc1` [Compound 4, N-hydroxy-4-((quinolin-3-ylamino)methyl)benzamide]: the GI50 is 2.73 ± 0.24 µM in assay [1] (Homo sapiens) and 1.62 ± 0.2 µM in assay [2] (Homo sapiens). The results for the IC50 at HDAC6 and at HDAC1 were 0.0191 µM and 0.78 µM, respectively.

For `O=C(NO)c1ccc(COc2cccc3cccnc23)cc1` [Compound 71, N-hydroxy-4-((quinolin-8-yloxy)methyl)benzamide], the GI50 was 7.81 ± 1.17 µM in assay [1] (Homo sapiens) and 6.23 ± 0.32 µM in assay [2] (Homo sapiens). In addition, at HDAC6, the half-inhibitory concentration (IC50) stood at 0.011 µM.

With `O=C(NO)c1cccc(C(=O)Nc2cccc3cccnc23)c1` [Compound 38, M-hydroxy-N^3-(quinolin-8-yl)isophthalamide], the GI50 in assay [2] (Homo sapiens) and in assay [3] was over 10 µM in each case.

In the case of `Cc1ccc2cccc(NCc3ccc(C(=O)NO)cc3)c2n1` [Compound 68, N-hydroxy-4-(((2-methylquinolin-8-yl)amino)methyl)benzamide], the values for the GI50 in assay [1] (Homo sapiens) and in assay [2] (Homo sapiens) were 5.89 ± 0.42 µM and 4.45 ± 0.92 µM, respectively. The IC50 at HDAC6 amounted to 0.0121 µM; on HDAC1, 1.69 µM.

Take `O=C(NO)c1ccc(CNc2cccc3cnccc23)cc1` [Compound 54, N-hydroxy-4-((isoquinolin-5-ylamino)methyl)benzamide]: the GI50 in assay [1] (Homo sapiens) is 4.64 ± 0.25 µM; in assay [2] (Homo sapiens) it was 6.06 ± 0.4 µM.

`O=C(NO)c1ccc(CNc2ccc3cccnc3c2)cc1` [Compound 42, N-hydroxy-4-((quinolin-7-ylamino)methyl)benzamide]: the values for the GI50 in assay [2] (Homo sapiens) and in assay [3] were 2.64 ± 0.14 µM and 0.62 ± 0.03 µM, respectively.

Turning to `O=C(/C=C/c1ccc(CNc2cccc3ncccc23)cc1)NO` [Compound 14, (E)-N-hydroxy-3-(4-((quinolin-5-ylamino)methyl)phenyl)acrylamide], the concentration for 50% growth inhibition (GI50) in assay [1] (Homo sapiens) was 1.25 ± 0.08 µM; in assay [2] (Homo sapiens) it was 0.62 ± 0.05 µM.

Regarding `O=C(NO)c1ccc(CNc2ccc3ncccc3c2)cc1` [Compound 20, N-hydroxy-4-((quinolin-6-ylamino)methyl)benzamide], the GI50 in assay [1] (Homo sapiens) and in assay [2] (Homo sapiens) was over 10 µM throughout. Besides, the IC50 on HDAC6 is 0.019 µM; at HDAC1, over 100 µM.
